# Calls of active or inactive are those of the source. The calls are words filed in the database; no cut-off is given here.
# What was measured:
# [1] = target: T1, Protein arginine N-methyltransferase 1 (Homo sapiens, UniProt Q99873); test: Displacement of [3H]SAM from PRMT1 (unknown origin) at 10 uM preincubated for 15 mins followed by [3H]SAM addition measured after 60 mins by radiometric/luminescence based assay relative to control; details: time 75.0 min
# Target sequence in this assay (Q99873 whole entry, looked up): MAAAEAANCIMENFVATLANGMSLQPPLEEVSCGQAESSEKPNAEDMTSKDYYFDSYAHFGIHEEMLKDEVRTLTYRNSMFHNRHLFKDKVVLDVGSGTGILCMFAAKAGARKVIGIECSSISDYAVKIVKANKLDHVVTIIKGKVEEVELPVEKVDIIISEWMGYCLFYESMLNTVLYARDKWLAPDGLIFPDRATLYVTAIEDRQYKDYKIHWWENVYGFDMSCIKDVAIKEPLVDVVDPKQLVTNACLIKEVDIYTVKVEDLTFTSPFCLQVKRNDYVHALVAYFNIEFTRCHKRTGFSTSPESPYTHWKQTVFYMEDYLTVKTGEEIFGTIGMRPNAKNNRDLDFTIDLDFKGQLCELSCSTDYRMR
# MDA-MB-231 = test: Antiproliferative activity against human MDA-MB-231 cells incubated for 48 hrs by CCK8 assay; assay type: functional, cell-based; details: MDA-MB-231, 48 h
# HeLa [2] = test: Antiproliferative activity against human HeLa cells incubated for 48 hrs by CCK8 assay; assay type: functional, cell-based
# [3] = target: T1, Protein arginine N-methyltransferase 1; test: Displacement of [3H]SAM from PRMT1 (unknown origin) preincubated for 15 mins followed by [3H]SAM addition measured after 60 mins by radiometric/luminescence based assay
# Target sequence in this assay (Q99873 whole entry): as the sequence (Q99873 whole entry, looked up) above
# HepG2 = test: Antiproliferative activity against human HepG2 cells incubated for 48 hrs by CCK8 assay; assay type: functional, cell-based; details: HepG2, 48 h
# [4] = target: Protein arginine N-methyltransferase 5 (Homo sapiens) (UniProt O14744); test: Inhibition of PRMT5 (unknown origin) using SAM as substrate incubated for 60 mins by chemiluminescence based assay
# A549 = test: Antiproliferative activity against human A549 cells incubated for 48 hrs by CCK8 assay; assay type: functional, cell-based; details: A549, 48 h
# HeLa [5] = test: Induction of apoptosis in human HeLa cells assessed as necrotic cells at 16 uM incubated for 24 hrs by flow cytometry (reference value: 1.10 %); assay type: functional
# HeLa [6] = test: Effect on SDMA expression in human HeLa cells at 2 to 8 uM incubated for 48 hrs by Western blot analysis; assay type: functional, cell-based; details: dose 2-8 µM
# HeLa [7] = test: Induction of apoptosis in human HeLa cells assessed as early apoptotic cells at 32 uM incubated for 24 hrs by flow cytometry (reference value: 28.2 %); assay type: functional
# HeLa [8] = test: Induction of early apoptosis in human HeLa cells assessed as dense nuclei incubated for 24 hrs by hoechst staining based analysis; assay type: functional, cell-based; details: dose <= 32.0 µM
# HeLa [9] = test: Induction of early apoptosis in human HeLa cells assessed as nuclear fragmentation incubated for 24 hrs by hoechst staining based analysis; assay type: functional, cell-based; details: dose <= 32.0 µM
# HeLa [10] = test: Downregulation of pro-caspase 9 expression in human HeLa cells incubated for 48 hrs by Western blot analysis; assay type: functional, cell-based; details: dose 2-8 µM
# HeLa [11] = test: Induction of apoptosis in human HeLa cells assessed as viable cells at 16 uM incubated for 24 hrs by flow cytometry (reference value: 66.3 %); assay type: functional; details: read-out: Activity
# HeLa [12] = test: Induction of apoptosis in human HeLa cells assessed as viable cells at 8 uM incubated for 24 hrs by flow cytometry (reference value: 66.3 %); assay type: functional; details: read-out: Activity
# HeLa [13] = test: Effect on PRMT1 expression in human HeLa cells at 2 to 8 uM incubated for 48 hrs by Western blot analysis; assay type: functional, cell-based; details: dose 2-8 µM
# HeLa [14] = test: Downregulation of N-Cadherin expression in human HeLa cells incubated for 48 hrs by Western blot analysis; assay type: functional, cell-based; details: dose 2-8 µM
# HeLa [15] = test: Downregulation of MMP2 expression in human HeLa cells incubated for 48 hrs by Western blot analysis; assay type: functional, cell-based; details: dose 2-8 µM
# HeLa [16] = test: Downregulation of DDAH expression in human HeLa cells at 2 to 8 uM incubated for 48 hrs by Western blot analysis; assay type: functional, cell-based; details: dose 2-8 µM
# HeLa [17] = test: Induction of apoptosis in human HeLa cells assessed as late apoptotic cells at 16 uM incubated for 24 hrs by flow cytometry (reference value: 4.37 %); assay type: functional
# HeLa [18] = test: Induction of apoptosis in human HeLa cells assessed as early apoptotic cells at 16 uM incubated for 24 hrs by flow cytometry (reference value: 28.2 %); assay type: functional
# HeLa [19] = test: Induction of apoptosis in human HeLa cells assessed as necrotic cells at 8 uM incubated for 24 hrs by flow cytometry (reference value: 1.10 %); assay type: functional
# HeLa [20] = test: Induction of apoptosis in human HeLa cells assessed as late apoptotic cells at 32 uM incubated for 24 hrs by flow cytometry (reference value: 4.37 %); assay type: functional
# HeLa [21] = test: Induction of apoptosis in human HeLa cells assessed as necrotic cells at 32 uM incubated for 24 hrs by flow cytometry (reference value: 1.10 %); assay type: functional
# HeLa [22] = test: Downregulation of ADMA expression in human HeLa cells incubated for 48 hrs by Western blot analysis; assay type: functional, cell-based; details: dose 2-8 µM
# HeLa [23] = test: Induction of early apoptosis in human HeLa cells assessed as nuclear edge fusion incubated for 24 hrs by hoechst staining based analysis; assay type: functional, cell-based; details: dose <= 32.0 µM
# HeLa [24] = test: Inhibition of cell migration in human HeLa cells incubated upto 48 hrs by scratch wound healing assay; assay type: functional, cell-based; details: dose 2-8 µM
# HeLa [25] = test: Induction of apoptosis in human HeLa cells assessed as viable cells at 32 uM incubated for 24 hrs by flow cytometry (reference value: 66.3 %); assay type: functional; details: read-out: Activity
# HeLa [26] = test: Induction of apoptosis in human HeLa cells assessed as early apoptotic cells at 8 uM incubated for 24 hrs by flow cytometry (reference value: 28.2 %); assay type: functional
# HeLa [27] = test: Inhibition of cell migration in human HeLa cells incubated at 24 hrs by crystal violet staining based transwell assay; assay type: functional; details: dose 2-8 µM
# HeLa [28] = test: Induction of apoptosis in human HeLa cells assessed as late apoptotic cells at 8 uM incubated for 24 hrs by flow cytometry (reference value: 4.37 %); assay type: functional
# HeLa [29] = test: Induction of early apoptosis in human HeLa cells assessed as reduction in number of cells incubated for 24 hrs by hoechst staining based analysis; assay type: functional, cell-based; details: dose <= 32.0 µM
# Sequence of Protein arginine N-methyltransferase 5 (Homo sapiens) (O14744 whole entry): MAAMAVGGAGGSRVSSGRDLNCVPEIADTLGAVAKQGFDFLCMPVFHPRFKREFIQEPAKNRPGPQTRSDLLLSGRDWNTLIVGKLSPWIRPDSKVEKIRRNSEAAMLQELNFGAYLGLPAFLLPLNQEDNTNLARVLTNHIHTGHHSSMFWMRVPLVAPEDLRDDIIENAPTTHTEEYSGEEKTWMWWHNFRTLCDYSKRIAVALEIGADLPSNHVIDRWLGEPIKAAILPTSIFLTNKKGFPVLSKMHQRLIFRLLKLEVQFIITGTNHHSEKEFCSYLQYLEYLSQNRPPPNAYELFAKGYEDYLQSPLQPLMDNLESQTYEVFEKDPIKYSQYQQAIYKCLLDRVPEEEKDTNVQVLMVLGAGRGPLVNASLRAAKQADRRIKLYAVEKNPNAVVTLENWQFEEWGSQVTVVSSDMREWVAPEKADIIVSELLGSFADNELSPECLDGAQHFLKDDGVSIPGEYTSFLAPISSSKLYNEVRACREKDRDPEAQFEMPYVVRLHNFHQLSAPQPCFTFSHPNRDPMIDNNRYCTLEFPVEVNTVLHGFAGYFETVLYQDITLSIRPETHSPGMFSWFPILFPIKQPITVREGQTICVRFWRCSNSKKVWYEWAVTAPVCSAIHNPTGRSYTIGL
compound,measurement,setting,value
CNCCN(C)Cc1sc(-c2cccc(OC(F)(F)F)c2)nc1-c1cccc(OC)c1,inhibition,[1],31%
CNCCN(C)Cc1sc(-c2cccc(OC(F)(F)F)c2)nc1-c1ccc(OC)cc1,inhibition,[1],21%
CNCCN(C)Cc1sc(-c2cccc(OC)c2)nc1-c1ccc(OC)cc1,inhibition,[1],43%
CNCCNCc1sc(-c2ccc(OC)cc2)nc1-c1ccc(OC)cc1,inhibition,[1],7%
CNCCN(C)Cc1sc(-c2ccc(OC(F)(F)F)cc2)nc1-c1ccc(OC)cc1,inhibition,[1],39%
CNCCN(C)Cc1sc(-c2ccc(N3CCOCC3)cc2)nc1-c1ccc(OC)cc1,inhibition,[1],56%
same,IC50,MDA-MB-231,31.4 µM
same,IC50,HeLa [2],19.4 µM
same,IC50,[3],7.07 µM
same,IC50,HepG2,20 µM
same,inhibition,[4],6%
same,IC50,A549,33.9 µM
CNCCN(C)Cc1sc(-c2ccc(OC(F)(F)F)cc2)nc1-c1cccc(OC)c1,inhibition,[1],35%
CNCCN(C)Cc1sc(-c2ccc(OC)cc2)nc1-c1ccc(OC)cc1.Cl,Activity,HeLa [5],1.33%
same,Activity,HeLa [6],inactive
same,Activity,HeLa [7],64.8%
same,Activity,HeLa [8],Dose-Dependent Effect
same,Activity,HeLa [9],Dose-Dependent Effect
same,Activity,HeLa [10],Active
same,inhibition,[1],60%
same,IC50,MDA-MB-231,16.9 µM
same,viability at 16 µM,HeLa [11],29.3%
same,viability at 8 µM,HeLa [12],56.2%
same,Activity,HeLa [13],inactive
same,IC50,HeLa [2],9.43 µM
same,Activity,HeLa [14],Dose-Dependent Effect
same,Activity,HeLa [15],Dose-Dependent Effect
same,Activity,HeLa [16],Active
same,Activity,HeLa [17],17.5%
same,Activity,HeLa [18],51.9%
same,Activity,HeLa [19],1.33%
same,Activity,HeLa [20],22.9%
same,Activity,HeLa [21],0.97%
same,Activity,HeLa [22],Dose-Dependent Effect
same,Activity,HeLa [23],Dose-Dependent Effect
same,IC50,[3],11.8 µM
same,inhibition,HeLa [24],Dose-Dependent Effect
same,IC50,HepG2,16 µM
same,inhibition,[4],2.52%
same,viability at 32 µM,HeLa [25],11.3%
same,Activity,HeLa [26],35.9%
same,IC50,A549,18.4 µM
same,inhibition,HeLa [27],Dose-Dependent Effect
same,Activity,HeLa [28],6.65%
same,Activity,HeLa [29],Dose-Dependent Effect
N=C(N)c1ccc(-c2ccc(-c3ccc(C(=N)N)cc3)o2)cc1,inhibition,[1],98.1%
CNCCN(C)Cc1sc(-c2cccc(N3CCOCC3)c2)nc1-c1ccc(OC)cc1,inhibition,[1],30%

# Source: ChEMBL document CHEMBL5325502, “Discovery of 2,4-diphenyl-substituted thiazole derivatives as PRMT1 inhibitors and investigation of their anti-cervical cancer effects” (Bioorg Med Chem, 2023)
